Entries after “also recorded” stand apart in the source; their conditions may differ.
How the values were obtained:
[1] = system: adalimumab-specific IgG response; test: ADA against adalimumab in hIgG1 Tg mice, ELISA (Example 1, 28 days); type: in vivo, C57BL/6-Tg (hIgG1,k,l) mice; conditions: 40 mg/kg/day via food admix from one day before first immunization until day 28, vs vehicle
Excerpt: For immunogenicity assessment, we used the previously described human IgG1 immune-tolerant mouse model (Bessa, Boeckle et al. Pharm Res 2015, 32(7): 2344-2359). Since this human IgG transgenic mouse is tolerant to a broad range of human IgG1 antibodies (Abs), ADA responses elicited in this system are taken to reflect intrinsic immunogenic attributes of the eliciting Ab compounds also expected to cause ADA in humans.
15-week-old mice C57BL/6 wild type and C57BL/6-Tg (hIgG1,k,l) were purchased from Taconic (Denmark) and housed at the animal facilities under a 12 hour (h) light 12 h dark cycle with cycles of air ventilation and free access to water and food. 7×10 μg of CEA-112v or 7×10 μg of Humira (Adalimumab, Abbvie Germany GmbH) were injected respectively at day 0, 4, 7, 11, 14, 18 and 21 subcutaneously in the right flank or the left flank alternatively. The dosage of the cathepsin S inhibitor consumption was 40 mg/kg/day. […]
(§1) Nunc Maxisorp flat-bottom 96 well ELISA plates were coated with 100 μl per well of Humira or CEA-PGLALA (3.42 mg/ml, ID 8037) respectively at 5 μg/mL in NaHCO3100 mM buffer overnight at +4° C. […] 100 μl of substrate P-nitrophenyl phosphate ready to use (Life Technologies Cat no 002212) were added per well and after 10 min incubation at room temperature, the OD at 405 nm was read as an end-point measurement with a Versamax ELISA reader.

[2] = system: IgG response to murine surrogate FAP-OX40; test: ADA against murine surrogate FAP-OX40 in wild-type mice, ELISA (Example 6); type: in vivo, C57BL/6 mice; conditions: 40 mg/kg/day via food admix from one week before first immunization until day 23
Description: 10-week-old female mice C57BL/6 were purchased from Charles River Laboratories (Germany) and housed at the animal facilities in room with air-conditioned under a 12 hours light/dark cycle in macrolon boxes with enriched environment and free access to water and food. 12.5 mg/kg of muFAP-OX40iMab (P1AD4396-005) were injected at day 1, 4 and 8 intravenously to the group 2 (n=10 mice) and at day 1, 4, 8, 11, 15, 18 and 22 to the group 3 (n=10 mice) respectively. The dosage of (2S,4R)-4-[4-(1-methyl-1H-pyrazol-4-yl)-2-trifluoromethyl-benzenesulfonyl]-1-(1-trifluoromethyl-cyclopropanecarbonyl)-pyrrolidine-2-carboxylic acid (1-cyano-cyclopropyl)-amide consumption was 40 mg/kg/day. […]
as §1, with “FAP(28H1)-OX40(49B4) PGLALA (P1AD4523)” for “Humira”, “anti OX40 moIgG2a (P1AD4561)” for “CEA-PGLALA (3.42 mg/ml, ID 8037)”, “Technologies,” for “Technologies”

Cn1cc(-c2ccc(S(=O)(=O)[C@@H]3C[C@@H](C(=O)NC4(C#N)CC4)N(C(=O)C4(C(F)(F)F)CC4)C3)c(C(F)(F)F)c2)cn1 [cathepsin S inhibitor, (2S,4R)-4-[4-(1-methyl-1H-pyrazol-4-yl)-2-trifluoromethyl-benzenesulfonyl]-1-(1-trifluoromethyl-cyclopropanecarbonyl)-pyrrolidine-2-carboxylic acid (1-cyano-cyclopropyl)-amide]
ADA to adalimumab (adalimumab-specific IgG) [1]: reduces ADA to adalimumab; also recorded: reduced ADA levels compared to vehicle treated animals
ADA specific to FAP (VHVL) domain of murine surrogate FAP-OX40 [2]: prevents ADA
OX40-specific ADA to murine surrogate FAP-OX40 [2]: prevents ADA
